Patent US20060025474A1, “Bisphenyl compounds useful as vitamin D3 receptor agonists” (priority 2004, published 2006)

Tested on: ECAC2 mRNA in Caco-2 cells
Type: cell-based
Description: The mRNA Expression Assay of ECAC2 in Caco-2 Cells
The dispersed cells were plated in 48-well plate at a concentration of 6.3×10^4 cells/well and incubated for 4 days at 37° C. The culture medium (Dulbecco's Modified Eagle Medium (D-MEM) without NaHCO3 with 44 mM NaHCO3, 1 mM non-essential amino acids, and 2 mM L-glutamine, 90%; fetal bovine serum, 10%) was then replaced with the same medium containing various concentrations of LG190178 (the compound disclosed in WO00/10958 and the corresponding U.S. Pat. No. 6,218,430 B1) or the compounds of the present invention, and cells were cultured for 1 day at 37° C. The culture medium containing the compounds was changed twice per day.
Total RNA Isolation from Caco-2 Cell
Total RNA was isolated from Caco-2 cell following ABI PRISM™ 6100 Nucleic Acid PrepStation protocol from Applied Biosystems.
Real Time RT-PCR Assay of ECAC2
ECAC2 mRNA expression was determined using TaqMan One-step RT-PCR Master Mix Reagents Kit and PRISM7000 systems from Applied Biosystems.
Primer information and cycle conditions are 1)ECAC2, forward 5′-[…]-3′, reverse 5′-GTCCTCTGTCTGGMGATGA-3′, Taqman probe 5′-[…]-3′, 55 cycles, annealing temperature (Ta)=60° C.; 2)GAPDH, forward 5′-GMGGTGMGGTCGGAGTC-3′, reverse 5′-GMGATGGTGATGGGATTTC-3′, Taqman probe 5′-[…]-3′, 55 cycles, Ta=60° C. ECAC2 mRNA values were normalized for the expression of GAPDH mRNA within each sample.
Comparison of ECAC2 mRNA Value
The EC50 values of ECAC2 mRNA values were analyzed by Emax models. The ECAC2 mRNA ratio was calculated as the ratio of the EC50 value of the compounds to that of LG190178. ECAC2 is a channel-like transporter mediating intestinal calcium absorption. It is described in J Biol Chem. Aug. 6, 1999; 274(32):22739-46 for example.

ECaC-2 mRNA induction activity in Caco-2 cells [%]	Compound
323	CCC(O)(/C=C/c1ccc(C(CC)(CC)c2cc(C)c(OC[C@@H](O)CCC(=O)O)c(C)c2)cc1C)CC [Example 167, (S)-5-(4-{1-Ethyl-1-[4-((E)-3-ethyl-3-hydroxy-pent-1-enyl)-3-methyl-phenyl]-propyl}-2,6-dimethyl-phenoxy)-4-hydroxy-pentanoic acid]
75	CCC(CC)(c1ccc(/C=C/C2(O)CCCC2)c(C)c1)c1ccc(OCCCCCN)c(C)c1 [Example 121, 1-[(E)-2-(4-{1-[4-(5-Amino-pentyloxy)-3-methyl-phenyl]-1-ethyl-propyl}-2-methyl-phenyl)-vinyl]-cyclopentanol]
100	CCC(CC)(c1ccc(OCC(O)CO)c(C)c1)c1ccc(OCC(O)C(C)(C)C)c(C)c1 (stereo not drawn) [LG190178, reference compound]
<10	CCC(CC)(c1ccc(/C=C/C(O)(C(F)(F)F)C(F)(F)F)c(C)c1)c1ccc(OCCCCCN)c(C)c1 [Example 125, (E)4-(4-{1-[4-(5-Amino-pentyloxy)-3-methyl-phenyl]-1-ethyl-propyl}-2-methyl-phenyl)-1,1,1-trifluoro-2-trifluoromethyl-but-3-en-2-ol]
235	CCC(CC)(c1ccc(C#CC(O)(C(F)(F)F)C(F)(F)F)c(C)c1)c1ccc(OC[C@H](O)CCCC(=O)O)c(C)c1 [Example 60, (R)-6-(4-{1-ethyl-1-[3-methyl4-(4,4,4-trifluoro-3-hydroxy-3-trifluoromethyl-but-1-ynyl)-phenyl]-propyl}-2-methyl-phenoxy)-5-hydroxy-hexanoic acid]
519	CCC(CC)(c1ccc(/C=C/C(O)(C(F)(F)F)C(F)(F)F)c(C)c1)c1ccc(OC[C@H]2CCC(=O)O2)c(C)c1 [Example 48, (R)-5-(4-{1-ethyl-1-[3-methyl-4-((E)-4,4,4-trifluoro-3-hydroxy-3-trifluoromethyl-but-1-enyl)-phenyl]-propyl}-2-methyl-phenoxymethyl)-dihydro-furan-2-one]
534	CCC(CC)(c1ccc(C#CC(O)(C(F)(F)F)C(F)(F)F)c(C)c1)c1ccc(OCC(CO)CO)c(C)c1 [Example 77, 2-(4-{1-ethyl-1-[3-methyl-4-(4,4,4-trifluoro-3-hydroxy-3-trifluoromethyl-but-1-ynyl)-phenyl]-propyl}-2-methyl-phenoxymethyl)-propane-1,3-diol]
639	CCC(CC)(c1ccc(/C=C/C2(O)CCCCC2)c(C)c1)c1ccc(OC[C@@H](O)CCC(=O)O)c(C)c1 [Example 37, (S)-5-[4-(1-ethyl-1-{4-[(E)-2-(1-hydroxy-cyclohexyl)-vinyl]-3-methyl-phenyl}-propyl)-2-methyl-phenoxy]-4-hydroxy-pentanoic acid]
1647	CCC(CC)(c1ccc(/C=C/C(O)(C(F)(F)F)C(F)(F)F)c(C)c1)c1ccc(OC[C@@H]2CCCO2)c(C)c1 [Example 157, (E)4-[4-(1-Ethyl-1-{3-methyl-4-[(S)-1-(tetrahydro-furan-2-yl)methoxy]-phenyl}-propyl)-2-methyl-phenyl]-1,1,1-trifluoro-2-trifluoromethyl-but-3-en-2-ol]
987	CCC(CC)(c1ccc(/C=C/C(O)(C(F)(F)F)C(F)(F)F)c(C)c1)c1ccc(OC[C@H](O)CCC(=O)O)c(C)c1 [Example 49, 5-(4-{1-ethyl-1-[3-methyl4-((E)4,4,4-trifluoro-3-hydroxy-3-trifluoromethyl-but-1-enyl)-phenyl]-propyl}-2-methyl-phenoxy)4(R)-hydroxy-pentanoic acid]
6659	CCC(CC)(c1ccc(/C=C/C(O)(C(F)(F)F)C(F)(F)F)c(C)c1)c1ccc(OCC(CO)CO)c(C)c1 [Example 78, 2-(4-{1-ethyl-1-[3-methyl-4-((E)-4,4,4-trifluoro-3-hydroxy-3-trifluoromethyl-but-1-enyl)-phenyl]-propyl}-2-methyl-phenoxymethyl)-propane-1,3-diol]
75	CCC(O)(/C=C/c1ccc(C(CC)(CC)c2ccc(OCc3ccc(C(=O)O)cc3)c(C)c2)cc1C)CC [Example 147, 4-(4-{I-Ethyl-1-[4-((E)-3-ethyl-3-hydroxy-pent-1-enyl)-3-methyl-phenyl]-propyl}-2-methyl-phenoxymethyl)-benzoic acid]
178	CCC(CC)(c1ccc(CCC(O)(C(F)(F)F)C(F)(F)F)c(C)c1)c1ccc(OCC(CO)CO)c(C)c1 [Example 79, 2-(4-{1-ethyl-1-[3-methyl-4-(4,4,4-trifluoro-3-hydroxy-3-trifluoromethyl-butyl)-phenyl]-propyl}-2-methyl-phenoxymethyl)-propane-1,3-diol]
918	CCC(CC)(c1ccc(/C=C/C(O)(C(F)(F)F)C(F)(F)F)c(C)c1)c1ccc(OC[C@H]2CCCC(=O)O2)c(C)c1 [Example 61, (R)-6-(4-{1-ethyl-1-[3-methyl4-((E)4,4,4-trifluoro-3-hydroxy-3-trifluoromethyl-but-1-enyl)-phenyl]-propyl}-2-methyl-phenoxymethyl)-tetrahydro-pyran-2-one]
518	CCC(CC)(c1ccc(CCC(O)C(C)(C)C)c(C)c1)c1ccc(OCCCCC(=O)O)c(C)c1 (stereo not drawn) [Example 80, 5-(4-{1-ethyl-1-[4-(3-hydroxy-4,4-dimethyl-pentyl)-3-methyl-phenyl]-propyl}-2-methyl-phenoxy)-pentanoic acid]
2017	CCC(O)(/C=C/c1ccc(C(CC)(CC)c2ccc(OC[C@@H](O)CCC(=O)O)cc2)cc1C)CC [Example 165, (S)-5-(4-{1-Ethyl-1-[4-((E)-3-ethyl-3-hydroxy-pent-1-enyl)-3-methyl-phenyl]-propyl}-phenoxy)4-hydroxy-pentanoic acid]
191	CCCc1cc(C(CC)(CC)c2ccc(OC[C@@H](O)CCC(=O)O)c(C)c2)ccc1/C=C/C(O)(CC)CC [Example 170, (S)-5-(4-{1-Ethyl-1-[4-((E)-3-ethyl-3-hydroxy-pent-1-enyl)-3-propyl-phenyl]-propyl}-2-methyl-phenoxy)4-hydroxy-pentanoic acid]
823	CCC(CC)(c1ccc(/C=C/C(O)(C(F)(F)F)C(F)(F)F)c(C)c1)c1ccc(CCC(=O)O)c(C)c1 [Example 107, 3-(4-{1-ethyl-1-[3-methyl-4-((E)-4,4,4-trifluoro-3-hydroxy-3-trifluoromethyl-but-1-enyl)-phenyl]-propyl}-2-methyl-phenyl)-propionic acid]
36	CCC(O)(/C=C/c1ccc(C(CC)(CC)c2ccc(OC[C@@H](O)CCC(=O)O)c(C)c2)cc1C)CC [Example 1, (S)-5-(4-{1-ethyl-1-[4-((E)-3-ethyl-3-hydroxy-pent-1-enyl)-3-methyl-phenyl]-propyl}-2-methyl-phenoxy)-4-hydroxy-pentanoic acid]
271	CCC(O)(/C=C/c1ccc(C(CC)(CC)c2ccc(OCC(=O)CCC(=O)O)c(C)c2)cc1C)CC [Example 198, (E)-5-(4-{1-Ethyl-1-[4-(3-ethyl-3-hydroxy-pent-1-enyl)-3-methyl-phenyl]-propyl}-2-methyl-phenoxy)-4-oxo-pentanoic acid]
542	CCC(O)(/C=C/c1ccc(C(CC)(CC)c2ccc(OCC(CO)CO)c(C)c2)cc1C)CC [Example 72, 2-(4-{1-Ethyl-1-[4-((E)-3-ethyl-3-hydroxy-pent-1-enyl)-3-methyl-phenyl]-propyl}-2-methyl-phenoxymethyl)-propane-1,3-diol]
355	CCC(CC)(c1ccc(C#CC(O)(C(F)(F)F)C(F)(F)F)c(C)c1)c1ccc(OC[C@@H](O)CO)c(C)c1 [Example 68, 3-(4-{1-Ethyl-1-[3-methyl4-(4,4,4-trifluoro-3-hydroxy-3-trifluoromethyl-but-1-ynyl)-phenyl]-propyl}-2-methyl-phenoxy)-propane-1,2(S)-diol]
34	CCc1cc(C(CC)(CC)c2ccc(C(=O)N[C@@H](C)C(=O)O)s2)ccc1OCC(C)(O)C(C)(C)C (single isomer, unassigned) [Compound C, reference compound]

Compound	ECaC-2 mRNA induction activity in Caco-2 cells [%]
CCC(CC)(c1ccc(/C=C/C(O)(C(F)(F)F)C(F)(F)F)c(C)c1)c1ccc(OCCCCc2nnn[nH]2)c(C)c1 [Example 115, (E)-4-[4-(1-ethyl-1-{3-methyl-4-[4-(1 H-tetrazol-5-yl)-butoxy]-phenyl}-propyl)-2-methyl-phenyl]-1,1,1-trifluoro-2-trifluoromethyl-but-3-en-2-ol]	91
